From ChEMBL document CHEMBL1150336, “Synthesis and antibacterial activity of novel pyrido[1,2,3-de][1,4]benzoxazine-6-carboxylic acid derivatives carrying the 3-cyclopropylaminomethyl-4-substituted-1-pyrrolidinyl group as a C-10 substituent” (J Med Chem, 2008)
Converted amounts (≈) assume the structure as drawn.

What was measured:
Mus musculus [1] = assay: Phototoxicity in orally dosed ICR mouse assessed as skin erythema after 72 hrs; assay type: organism-based; settings: in vivo, po
Staphylococcus aureus [2] = assay: Antibacterial activity against quinoline-resistant Staphylococcus aureus MS5935 containing single grlA and single gyrA mutation after 18 hrs by agar dilution method; assay type: functional
Streptococcus pneumoniae [3] = assay: Antibacterial activity against Streptococcus pneumoniae type 3 after 18 hrs by agar dilution method; assay type: functional
Escherichia coli = assay: Antibacterial activity against Escherichia coli NIHJ JC2 after 18 hrs by agar dilution method; assay type: functional; settings: NIHJ JC2, 18 h
Mus musculus [4] = assay: Toxicity in ICR mouse assessed as mortality administered as single dose at 200 mg/kg, iv after 7 days; assay type: organism-based; design: dose 200 mg/kg, route intravenous; settings: in vivo, 168 h
Staphylococcus aureus [5] = assay: Antibacterial activity against quinoline-resistant Staphylococcus aureus OITI MR1-1002 isolate after 18 hrs by agar dilution method; assay type: functional
Staphylococcus aureus [6] = assay: Antibacterial activity against Staphylococcus aureus Smith infected in subcutaneously dosed ICR mouse administered 1 hr after bacterial challenge measured at 7 days post infection; assay type: functional; settings: sc
Enterococcus faecalis [7] = assay: Antibacterial activity against Enterococcus faecalis IID682 after 18 hrs by agar dilution method; assay type: functional
Streptococcus pneumoniae [8] = assay: Antibacterial activity against Streptococcus pneumoniae type 3 infected in po dosed ICR mouse administered 1 hr after bacterial challenge measured at 7 days post infection; assay type: functional
Mus musculus [9] = assay: Toxicity in intracerebroventricularly dosed ICR mouse assessed as induction of convulsion after 2 hrs in presence of fenbufen; assay type: organism-based; settings: in vivo, icv_or_intrathecal
Staphylococcus aureus [10] = assay: Antibacterial activity against quinoline-resistant Staphylococcus aureus MS5935 containing double grlA and single gyrA mutation after 18 hrs by agar dilution method; assay type: functional
Staphylococcus aureus [11] = assay: Antibacterial activity against Staphylococcus aureus Smith infected in po dosed ICR mouse administered 1 hr after bacterial challenge measured at 7 days post infection; assay type: functional
Streptococcus pyogenes = assay: Antibacterial activity against Streptococcus pyogenes IID692 after 18 hrs by agar dilution method; assay type: functional
Streptococcus pneumoniae [12] = assay: Antibacterial activity against quinoline-resistant Streptococcus pneumoniae no.55 isolate after 18 hrs by agar dilution method; assay type: functional
Mus musculus [13] = assay: Toxicity in ICR mouse assessed as mortality administered as single dose at 100 mg/kg, iv after 7 days; assay type: organism-based; design: dose 100 mg/kg, route intravenous; settings: in vivo, 168 h
[14] = Inhibition of quinoline-resistant Staphylococcus aureus MS5935 topoisomerase 4-mediated decatenation activity
Enterococcus faecalis [15] = assay: Antibacterial activity against vancomycin-resistant Enterococcus faecalis KU1866 after 18 hrs by agar dilution method; assay type: functional
Pseudomonas aeruginosa = assay: Antibacterial activity against Pseudomonas aeruginosa IID1210 after 18 hrs by agar dilution method; assay type: functional
Enterococcus faecalis [16] = assay: Antibacterial activity against vancomycin-resistant Enterococcus faecalis KU1856 after 18 hrs by agar dilution method; assay type: functional
Staphylococcus aureus [17] = assay: Antibacterial activity against quinoline-resistant wild type Staphylococcus aureus MS5935 after 18 hrs by agar dilution method; assay type: functional
DNA gyrase [18] = target: T1, DNA gyrase (Staphylococcus aureus, UniProt P0A0K8+P20831); assay: Inhibition of quinoline-resistant Staphylococcus aureus MS5935 DNA gyrase-mediated supercoiling activity; assay type: protein-complex assay
Enterococcus faecalis [19] = assay: Antibacterial activity against quinoline-resistant Enterococcus faecalis No.15 isolate after 18 hrs by agar dilution method; assay type: functional
DNA gyrase [20] = target: T1, DNA gyrase; assay: Inhibition of Staphylococcus aureus MS5935 wild type DNA gyrase-mediated supercoiling activity; assay type: protein-complex assay
Mus musculus [21] = assay: Toxicity in intracerebroventricularly dosed ICR mouse assessed as induction of convulsion after 2 hrs in absence of fenbufen; assay type: organism-based; settings: in vivo, icv_or_intrathecal
Staphylococcus aureus [22] = assay: Antibacterial activity against Staphylococcus aureus Smith after 18 hrs by agar dilution method; assay type: functional
Staphylococcus aureus [23] = assay: Antibacterial activity against quinoline-resistant Staphylococcus aureus MS5935 containing single grlA mutation after 18 hrs by agar dilution method; assay type: functional
Staphylococcus aureus [24] = assay: Antibacterial activity against quinoline-resistant Staphylococcus aureus MS5935 containing double grlA and double gyrA mutation after 18 hrs by agar dilution method; assay type: functional
Streptococcus pneumoniae [25] = assay: Antibacterial activity against Streptococcus pneumoniae type 3 infected in subcutaneously dosed ICR mouse administered 1 hr after bacterial challenge measured at 7 days post infection; assay type: functional; settings: sc
Haemophilus influenzae = assay: Antibacterial activity against Haemophilus influenzae IID983 after 18 hrs by agar dilution method; assay type: functional
[26] = Inhibition of Staphylococcus aureus MS5935 wild type topoisomerase 4-mediated decatenation activity
Klebsiella pneumoniae = assay: Antibacterial activity against Klebsiella pneumoniae IID5209 after 18 hrs by agar dilution method; assay type: functional

T1 sequence (P0A0K8 whole entry): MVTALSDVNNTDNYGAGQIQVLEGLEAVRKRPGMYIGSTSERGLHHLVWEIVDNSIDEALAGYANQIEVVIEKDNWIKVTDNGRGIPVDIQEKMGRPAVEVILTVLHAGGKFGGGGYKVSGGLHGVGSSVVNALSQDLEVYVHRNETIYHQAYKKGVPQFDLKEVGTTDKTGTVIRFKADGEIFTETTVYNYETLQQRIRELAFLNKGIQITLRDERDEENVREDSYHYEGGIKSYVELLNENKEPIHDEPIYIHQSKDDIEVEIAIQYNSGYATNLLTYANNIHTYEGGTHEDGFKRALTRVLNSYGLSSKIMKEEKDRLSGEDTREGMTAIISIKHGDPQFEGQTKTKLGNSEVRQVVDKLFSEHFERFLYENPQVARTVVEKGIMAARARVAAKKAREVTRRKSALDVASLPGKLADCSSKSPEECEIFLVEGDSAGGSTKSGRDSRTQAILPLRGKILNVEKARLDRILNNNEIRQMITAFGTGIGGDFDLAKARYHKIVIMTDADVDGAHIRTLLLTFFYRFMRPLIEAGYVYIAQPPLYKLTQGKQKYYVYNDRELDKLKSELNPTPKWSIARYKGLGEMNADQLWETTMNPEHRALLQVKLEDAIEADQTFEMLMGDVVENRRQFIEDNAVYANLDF
T1 sequence (P20831 whole entry): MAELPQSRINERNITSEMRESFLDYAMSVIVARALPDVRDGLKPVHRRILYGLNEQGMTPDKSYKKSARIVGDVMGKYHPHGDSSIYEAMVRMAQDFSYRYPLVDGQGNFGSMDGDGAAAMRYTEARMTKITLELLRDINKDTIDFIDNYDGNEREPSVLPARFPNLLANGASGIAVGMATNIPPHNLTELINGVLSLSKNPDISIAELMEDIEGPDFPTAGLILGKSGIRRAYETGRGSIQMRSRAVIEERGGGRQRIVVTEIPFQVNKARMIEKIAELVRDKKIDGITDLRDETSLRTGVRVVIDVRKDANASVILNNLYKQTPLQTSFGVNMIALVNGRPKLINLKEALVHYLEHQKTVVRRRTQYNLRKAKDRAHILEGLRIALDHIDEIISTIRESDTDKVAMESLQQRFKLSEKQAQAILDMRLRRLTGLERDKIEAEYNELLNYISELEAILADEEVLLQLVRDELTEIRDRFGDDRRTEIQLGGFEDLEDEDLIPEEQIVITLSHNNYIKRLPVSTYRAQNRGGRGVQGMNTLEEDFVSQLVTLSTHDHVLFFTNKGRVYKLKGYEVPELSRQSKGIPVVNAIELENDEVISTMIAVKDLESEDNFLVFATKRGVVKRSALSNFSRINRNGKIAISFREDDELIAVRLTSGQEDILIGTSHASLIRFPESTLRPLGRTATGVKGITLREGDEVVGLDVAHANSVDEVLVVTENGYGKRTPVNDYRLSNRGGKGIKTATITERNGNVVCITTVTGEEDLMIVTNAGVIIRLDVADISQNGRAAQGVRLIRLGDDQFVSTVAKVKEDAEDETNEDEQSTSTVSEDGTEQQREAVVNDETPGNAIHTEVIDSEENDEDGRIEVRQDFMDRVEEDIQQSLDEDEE

Structure (SMILES) | Activity (Mus musculus [1]) | MIC (Streptococcus pneumoniae [3]) [µg/mL] | MIC (Escherichia coli) [µg/mL] | Activity (Mus musculus [4]) | MIC (Staphylococcus aureus [5]) [µg/mL] | MIC (Enterococcus faecalis [7]) [µg/mL] | Activity (Mus musculus [9]) [µg] | MIC (Streptococcus pyogenes) [µg/mL] | MIC (Streptococcus pneumoniae [12]) [µg/mL] | Activity (Mus musculus [13]) | MIC (Enterococcus faecalis [15]) [µg/mL] | MIC (Pseudomonas aeruginosa) [µg/mL] | MIC (Enterococcus faecalis [16]) [µg/mL] | MIC (Enterococcus faecalis [19]) [µg/mL] | Activity (Mus musculus [21]) [µg] | MIC (Staphylococcus aureus [22]) [µg/mL] | MIC (Haemophilus influenzae) [µg/mL] | MIC (Klebsiella pneumoniae) [µg/mL] | also measured
O=C(O)c1cn2c3c(c(N4C[C@H](CNC5CC5)[C@H](F)C4)c(F)cc3c1=O)OC[C@@H]2CF | Non-toxic | 0.016 (≈ 0.0366 µM) | 0.008 (≈ 0.0183 µM) | Non-toxic | 1 (≈ 2.29 µM) | 0.063 (≈ 0.144 µM) | > 40 | 0.031 (≈ 0.0709 µM) | 0.25 (≈ 0.572 µM) | Non-toxic | 0.5 (≈ 1.14 µM) | 2 (≈ 4.57 µM) | 0.5 (≈ 1.14 µM) | 1 (≈ 2.29 µM) | > 40 | 0.008 (≈ 0.0183 µM) | 0.004 (≈ 0.00914 µM) | 0.031 (≈ 0.0709 µM) | MIC (Staphylococcus aureus [2]): 0.25 µg/mL (≈ 0.572 µM); ED50 (Staphylococcus aureus [6]): 0.12 mg/kg; ED50 (Streptococcus pneumoniae [8]): 4 mg/kg; MIC (Staphylococcus aureus [10]): 0.5 µg/mL (≈ 1.14 µM); ED50 (Staphylococcus aureus [11]): 0.5 mg/kg; IC50 [14]: 7 µg/mL (≈ 16 µM); MIC (Staphylococcus aureus [17]): 0.016 µg/mL (≈ 0.0366 µM); IC50 (DNA gyrase [18]): 31.1 µM; IC50 (DNA gyrase [20]): 2.42 µM; MIC (Staphylococcus aureus [23]): 0.031 µg/mL (≈ 0.0709 µM); MIC (Staphylococcus aureus [24]): 4 µg/mL (≈ 9.14 µM); ED50 (Streptococcus pneumoniae [25]): 2.9 mg/kg; IC50 [26]: 1.27 µg/mL (≈ 2.9 µM)
CCNCC1CCN(c2c(F)cc3c(=O)c(C(=O)O)cn4c3c2OC[C@@H]4C)C1 (stereo partly specified) | – | 0.063 (≈ 0.162 µM) | 0.031 (≈ 0.0796 µM) | – | 32 (≈ 82.2 µM) | 0.25 (≈ 0.642 µM) | – | 0.063 (≈ 0.162 µM) | 2 (≈ 5.14 µM) | – | 16 (≈ 41.1 µM) | 4 (≈ 10.3 µM) | 16 (≈ 41.1 µM) | 32 (≈ 82.2 µM) | – | 0.125 (≈ 0.321 µM) | – | – | –
C[C@H]1CN(c2c(F)cc3c(=O)c(C(=O)O)cn4c3c2OC[C@@H]4CF)C[C@@H]1CNC1CC1 | Non-toxic | 0.031 (≈ 0.0715 µM) | 0.016 (≈ 0.0369 µM) | – | 2 (≈ 4.61 µM) | 0.063 (≈ 0.145 µM) | 20 | 0.031 (≈ 0.0715 µM) | 0.5 (≈ 1.15 µM) | Non-toxic | 1 (≈ 2.31 µM) | 4 (≈ 9.23 µM) | 1 (≈ 2.31 µM) | 1 (≈ 2.31 µM) | 40 | 0.008 (≈ 0.0185 µM) | 0.008 (≈ 0.0185 µM) | 0.125 (≈ 0.288 µM) | –
C[C@H]1COc2c(N3C[C@H](CNC4CC4)[C@H](F)C3)c(F)cc3c(=O)c(C(=O)O)cn1c23 | – | 0.016 (≈ 0.0381 µM) | 0.008 (≈ 0.0191 µM) | Non-toxic | 1 (≈ 2.38 µM) | 0.063 (≈ 0.15 µM) | > 40 | 0.031 (≈ 0.0739 µM) | 0.125 (≈ 0.298 µM) | Non-toxic | 0.5 (≈ 1.19 µM) | 2 (≈ 4.77 µM) | 0.5 (≈ 1.19 µM) | 0.5 (≈ 1.19 µM) | > 40 | 0.008 (≈ 0.0191 µM) | 0.004 (≈ 0.00954 µM) | 0.031 (≈ 0.0739 µM) | –
O=C(O)c1cn2c3c(c(N4CC[C@@H](CNC5CC5)C4)c(F)cc3c1=O)OC[C@@H]2CF | Non-toxic | 0.016 (≈ 0.0381 µM) | 0.004 (≈ 0.00954 µM) | – | 2 (≈ 4.77 µM) | 0.063 (≈ 0.15 µM) | 10 | 0.031 (≈ 0.0739 µM) | 0.25 (≈ 0.596 µM) | Non-toxic | 0.5 (≈ 1.19 µM) | 2 (≈ 4.77 µM) | 0.5 (≈ 1.19 µM) | 1 (≈ 2.38 µM) | 10 | 0.008 (≈ 0.0191 µM) | 0.004 (≈ 0.00954 µM) | 0.031 (≈ 0.0739 µM) | –
C[C@@H]1CN(c2c(F)cc3c(=O)c(C(=O)O)cn4c3c2OC[C@@H]4C)C[C@@H]1CNC1CC1 | – | 0.016 (≈ 0.0385 µM) | 0.016 (≈ 0.0385 µM) | – | 0.5 (≈ 1.2 µM) | 0.063 (≈ 0.152 µM) | > 40 | 0.016 (≈ 0.0385 µM) | 0.125 (≈ 0.301 µM) | Toxic | 1 (≈ 2.41 µM) | 2 (≈ 4.81 µM) | 1 (≈ 2.41 µM) | 1 (≈ 2.41 µM) | > 40 | 0.008 (≈ 0.0193 µM) | 0.004 (≈ 0.00963 µM) | 0.063 (≈ 0.152 µM) | –
C[C@H]1COc2c(N3CC[C@@H](CNC4CC4)C3)c(F)cc3c(=O)c(C(=O)O)cn1c23 | – | 0.016 (≈ 0.0399 µM) | 0.008 (≈ 0.0199 µM) | Toxic | 2 (≈ 4.98 µM) | 0.063 (≈ 0.157 µM) | 20 | 0.016 (≈ 0.0399 µM) | 0.25 (≈ 0.623 µM) | Non-toxic | 0.5 (≈ 1.25 µM) | 2 (≈ 4.98 µM) | 0.5 (≈ 1.25 µM) | 1 (≈ 2.49 µM) | 20 | 0.008 (≈ 0.0199 µM) | 0.016 (≈ 0.0399 µM) | 0.063 (≈ 0.157 µM) | –
